Legend:
[1] = target: Glutamate receptor 1 (Rattus norvegicus) (UniProt P19490); test: (§1) Compound was evaluated to potentiate response of AMPA-activated current in Xenopus oocytes expressing Ionotropic glutamate receptor AMPA; format: functional, cell-based; conditions: Oocyte
[2] = target: Glutamate receptor ionotropic AMPA (Homo sapiens) (UniProt P48058+P42263+P42262+P42261); test: as §1; format: functional, cell-based; conditions: Oocyte
[3] = target: Glutamate [NMDA] receptor (Homo sapiens) (UniProt Q05586+Q12879+Q13224+O15399+O60391+Q14957+Q8TCU5); test: Compound was evaluated to potentiate response to NMDA receptor; format: protein-complex assay
[4] = target: Glutamate receptor ionotropic kainate (Homo sapiens) (UniProt P39086+Q16478+Q16099+Q13002+Q13003); test: Compound was evaluated to potentiate response to Ionotropic glutamate receptor kainate; format: protein-complex assay

Chain of Glutamate receptor 1 (Rattus norvegicus) (P19490 whole entry): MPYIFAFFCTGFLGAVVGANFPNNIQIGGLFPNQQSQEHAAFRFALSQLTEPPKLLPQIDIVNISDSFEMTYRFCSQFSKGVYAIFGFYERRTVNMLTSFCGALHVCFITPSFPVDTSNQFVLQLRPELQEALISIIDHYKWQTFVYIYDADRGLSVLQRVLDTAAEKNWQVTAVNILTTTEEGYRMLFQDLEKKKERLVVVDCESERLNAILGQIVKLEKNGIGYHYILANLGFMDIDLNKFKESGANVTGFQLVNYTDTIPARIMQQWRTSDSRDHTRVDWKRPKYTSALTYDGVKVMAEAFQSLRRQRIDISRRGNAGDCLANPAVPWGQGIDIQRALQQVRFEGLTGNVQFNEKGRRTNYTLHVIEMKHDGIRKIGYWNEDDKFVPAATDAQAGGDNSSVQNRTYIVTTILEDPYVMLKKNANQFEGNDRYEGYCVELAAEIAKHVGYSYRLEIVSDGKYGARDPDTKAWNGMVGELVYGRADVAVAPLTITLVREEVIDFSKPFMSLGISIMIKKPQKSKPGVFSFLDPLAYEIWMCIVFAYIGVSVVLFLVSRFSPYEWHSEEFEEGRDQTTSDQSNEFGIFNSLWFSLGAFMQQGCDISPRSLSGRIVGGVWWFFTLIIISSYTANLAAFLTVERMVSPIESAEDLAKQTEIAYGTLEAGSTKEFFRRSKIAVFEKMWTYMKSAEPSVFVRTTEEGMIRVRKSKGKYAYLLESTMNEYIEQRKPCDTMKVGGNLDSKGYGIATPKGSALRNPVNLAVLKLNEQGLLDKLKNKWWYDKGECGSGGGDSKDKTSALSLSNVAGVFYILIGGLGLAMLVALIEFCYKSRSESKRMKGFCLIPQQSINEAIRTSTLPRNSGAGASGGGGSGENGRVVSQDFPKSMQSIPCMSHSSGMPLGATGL

Compound	EC2x [1]	EC5x [1]	further results
NS(=O)(=O)c1cc2c(cc1Cl)NC(C1CC3C=CC1C3)NS2(=O)=O (configuration not stated)	2 µM	10 µM	–
O=S1(=O)N[C@@H]2CCCN2c2ccccc21	300 µM	–	–
O=C(c1ccc2c(c1)OCCO2)N1CC=CCC1	45 µM	110 µM	–
O=C(c1ccc2c(c1)OCO2)N1CCCCC1	300 µM	–	–
O=S1(=O)N[C@H]2CCCN2c2ccccc21	–	–	EC2x [2]: 35 µM; EC5x [2]: 70 µM; EC2x [3]: > 300 µM; EC2x [4]: > 300 µM
O=S1(=O)NC2CCCN2c2ccccc21 (racemic)	60 µM	160 µM	–

— ChEMBL document CHEMBL1150012, “Enantioselective synthesis of a pyrrolo-benzothiadiazine derivative S 18986, a new AMPA receptor positive modulator” (Bioorg Med Chem Lett, 1996)
